# Laboratory results: patent publication US7560466B2, “Methods of treating or preventing autoimmune diseases with 2,4-pyrimidinediamine compounds” (Rigel Pharmaceuticals, Inc., priority 2003, dated 2009)
# Test system: cultured human mast cells (CHMC), IgE-induced degranulation
# Assay: CHMC low cell density IgE activation: tryptase assay
# Type: cell-based
# Conditions: CHMC low cell density, 3pt, read-out: LD Tryptase, CHMC, IgE, 3pt
# Protocol: Inhibition of degranulation was measured at both low and high cell density by quantifying the release of the granule specific factors tryptase, histamine and hexosaminidase. Inhibition of release and/or synthesis of lipid mediators was assessed by measuring the release of leukotriene LTC4 and inhibition of release and/or synthesis of cytokines was monitored by quantifying TNF-α, IL-6 and IL-13. Tryptase and hexosaminidase were quantified using fluorogenic substrates as described in their respective examples. […] The protocols of the various assays are provided below.
# A second phase is performed to convert the expanded CD34-negative progenitor cells into differentiated mucosal mast cells. These mucosal cultured human mast cells (“CHMC”) are derived from CD34+ cells isolated from umbilical cord blood and treated to form a proliferated population of CD34-negative progenitor cells, as described above. […] Also, the cytokine composition of the medium was modified such that it contained SCF (200 ng/mL) and recombinant human IL-6 (200 ng/mL; Peprotech, Catalog No. 200-06 reconstituted to 100 ug/mL in sterile 10 mM acetic acid) (“CM/SCF/IL-6 medium”).
# Pellet CHMC cells (980 rpm, 10 min) and resuspend in pre-warmed MT. Add 65 ul of cells to each 96-well plate. Depending on the degranulation activity for each particular CHMC donor, load 1000-1500 cells/well. Mix four times followed by a 1 hr incubation at 37° C. […] Stimulate cells by adding 25 ul of 6× anti-IgE solution to the appropriate plates. Add 25 ul MT to un-stimulated control wells. Mix twice following addition of the anti-IgE. Incubate at 37° C. for 30 minutes. […] Spin plates at 1000 rpm for 10 min to pellet cells. Transfer 25 ul of supernatant to a 96-well black bottom plate and add 100 ul of freshly diluted tryptase substrate solution to each well. Incubate plates at room temperature for 30 min.
# In Table 1, all reported values are IC50s (in μM). […] In Table 1, all reported values are IC50s (in μM).
row,IC50 [µM],Compound
1,< 10,"Cc1cc(C)cc(Nc2ncc(F)c(Nc3ccc4c(c3)OC(F)(F)C(F)(F)O4)n2)c1 [Compound 362, N2-(3,5-Dimethyphenyl)-5-fluoro-N4-[3,4-(tetrafluoroethylenedioxy)phenyl]-2,4-pyrimidinediamine]"
2,< 10,"Cc1cc(Nc2ncc(F)c(Nc3ccc4c(c3)OC(F)(F)C(F)(F)O4)n2)cc(C(F)(F)F)c1 [Compound 366, 5-Fluoro-N2-(3-methyl-5-trifluoromethyl)-N4-[3,4-(tetrafluoroethylenedioxy)phenyl]-2,4-pyrimidinediamine]"
3,< 10,"CNC(=O)COc1c(C)cc(Nc2ncc(F)c(Nc3ccc4c(c3)OCCO4)n2)cc1C [Compound 572, N2-[3,5-dimethyl-4-(N-methylamino)carbonylmethyleneoxyphenyl]-N4-(3,4-ethylenedioxyphenyl)-5-fluoro-2,4-pyrimidinediamine]"

row,Compound,IC50 [µM]
1,"CN(c1ccc2c(c1)OCCO2)c1nc(NN)ncc1F [Compound 533, N4-(3,4-Ethylenedioxyphenyl)-5-fluoro-N4-methyl-2-hydrazine-4-pyrimidinea mine]",> 10

# Same assay, conditions: CHMC low cell density, 8pt, read-out: LD Tryptase, CHMC, IgE, 8pt
row,IC50 [µM],Compound
1,> 10,"Cc1cc(C)cc(Nc2ncc(F)c(Nc3ccc4c(c3)OC(F)(F)C(F)(F)O4)n2)c1 [Compound 362, N2-(3,5-Dimethyphenyl)-5-fluoro-N4-[3,4-(tetrafluoroethylenedioxy)phenyl]-2,4-pyrimidinediamine]"
2,< 10,"CNC(=O)COc1c(C)cc(Nc2ncc(F)c(Nc3ccc4c(c3)OCCO4)n2)cc1C [Compound 572, N2-[3,5-dimethyl-4-(N-methylamino)carbonylmethyleneoxyphenyl]-N4-(3,4-ethylenedioxyphenyl)-5-fluoro-2,4-pyrimidinediamine]"

# Same assay, conditions: Homo sapiens, Mast cell, low cell density CHMC, 8pt, read-out: LD Tryptase, CHMC, IgE, 8pt
row,IC50 [µM],Compound
1,< 10,O=C1COc2cc(Nc3nc(Nc4ccc(-c5ncco5)cc4)ncc3F)ccc2N1 [Compound 241]
2,< 10,OC=C1C=C(Nc2ncc(F)c(Nc3ccc4c(c3)OCCO4)n2)CC(=CO)C1 [Compound 342]

# Same assay, conditions: low cell density CHMC, 3pt, read-out: LD Tryptase, CHMC, IgE, 3pt
row,IC50 [µM],Compound
1,< 10,"CC1Sc2ccc(Nc3nc(Cl)ncc3F)cc2NC1=O (racemic) [Compound 314, racemic-N2-Chloro-5-fluoro-N4-(2-methyl-3-oxo-2H,4H-benzo[1,4]thiazin-6-yl)-4-pyrimidinea mine]"
2,> 10,"CC1C(=O)Nc2cc(Nc3nc(Cl)ncc3F)ccc2S1(=O)=O (racemic) [Compound 317, racemic-N2-Chloro-5-fluoro-N4-(2-methyl-1,1,3-trioxo-2H,4H-benzo[1,4]thiazin-6-yl)-4-pyrimidinea mine]"
3,< 10,"CNC(=O)COc1cccc(Nc2ncc(F)c(Nc3ccc4c(c3)NC(=O)C(C)(C)S4)n2)c1 [Compound 294, N4-(2,2-Dimethyl-3-oxo-4H-benzo[1,4]thiazin-6-yl)-5-fluoro-N2-[3-(N-methylamino)carbonylmethyleneoxyphenyl]-2,4-pyrimidinediamine]"
4,< 10,COc1ccc(Nc2ncc(F)c(Nc3ccc4c(c3)NC(=O)C(C)(C)S4)n2)cc1F [Compound 299]
5,< 10,"O=C1CSc2ccc(Nc3nc(Cl)ncc3F)cc2N1 [Compound 313, N2-Chloro-5-fluoro-N4-(3-oxo-2H,4H-benzo[1,4]thiazin-6-yl)-4-pyrimidinea mine]"
6,> 10,"O=C1CS(=O)(=O)c2ccc(Nc3nc(Cl)ncc3F)cc2N1 [Compound 315, N2-Chloro-5-fluoro-N4-(1,1,3-trioxo-2H,4H-benzo[1,4]thiazin-6-yl)-4-pyrimidinea mine]"
7,< 10,"CC1(C)Sc2ccc(Nc3nc(Cl)ncc3F)cc2NC1=O [Compound 316, N2-Chloro-N4-(2,2,-dimethyl-3-oxo-4H-benzo[1,4]thiazin-6-yl)-5-fluoro-4-pyrimidinea mine]"
8,< 10,"CC1(C)C(=O)Nc2cc(Nc3nc(Cl)ncc3F)ccc2S1(=O)=O [Compound 318, N2-Chloro-N4-(2,2-dimethyl-1,1,3-trioxo-4H-benzo[1,4]thiazin-6-yl)-5-fluoro-4-pyrimidinea mine]"
9,< 10,"CC1(C)COc2ccc(Nc3nc(Cl)ncc3F)cc2N1 [Compound 320, N2-Chloro-N4-(3,3-dimethyl-1,4-benzoxazin-6-yl)-5-fluoro-pyrimidinea mine]"
10,< 10,"CNC(=O)n1ccc2ccc(Nc3ncc(F)c(Nc4ccc5c(c4)NC(=O)C(C)(C)O5)n3)cc21 [Compound 347, N4-(2,2-Dimethyl-3-oxo-4H-benz[1,4]oxazin-6-yl)-N2-[1-(N-methylaminocarbony)lindol-6-yl)-5-fluoro-2,4-pyrimidinediamine]"

# Same assay, conditions: low cell density CHMC, 8pt, read-out: LD Tryptase, CHMC, IgE, 8pt
row,IC50 [µM],Compound
1,< 10,"CC1C(=O)Nc2cc(Nc3nc(Nc4cccc(O)c4)ncc3F)ccc2S1(=O)=O (racemic) [Compound 284, racemic-5-Fluoro-N2-[3-hydoxyphenyl]-N4-(2-methyl-1,1,3-trioxo-2H,4H-benzo[1,4]thiazin-6-yl)-2,4-pyrimidinediamine]"
2,< 10,"CNC(=O)COc1cccc(Nc2ncc(F)c(Nc3ccc4c(c3)NC(=O)C(C)S4(=O)=O)n2)c1 (racemic) [Compound 285, racemic-5-Fluoro-N2-[3-(N-methylamino)carbonylmethyleneoxyphenyl]-N4-(2-methyl-1,1,3-trioxo-2H,4H-benzo[1,4]thiazin-6-yl)-2,4-pyrimidinediamine]"
3,< 10,"C[C@H]1Oc2ccc(Nc3nc(Nc4cc5c6c(c4)c(CCO)cn6CCO5)ncc3F)cc2NC1=O [Compound 205, (R)-5-Fluoro-N2-[6-(2-hydroxyethyl)-2,3-dihydropyrrolo[1,2,3-d,e]benzoxazin-8-yl]-N4-(2-methyl-3-oxo-2H,4H-benz[1,4]oxazin-6-yl)-2,4-pyrimidinediamine]"
4,< 10,"CC1(C)COc2ccc(Nc3nc(Nc4cc5c6c(c4)c(CCO)cn6CCO5)ncc3F)cc2N1 [Compound 206, N4-(3,4-Dihydro-3,3-dimethyl-2H,4H-benz[1,4]oxazin-6-yl)-5-fluoro-N2-[6-(2-hydroxyethyl)-2,3-dihydropyrrolo[1,2,3-d,e]benzoxazin-8-yl]-2,4-pyrimidinediamine]"
5,< 10,"CNC(=O)COc1cccc(Nc2ncc(F)c(Nc3ccc4c(c3)NC(=O)C(C)(C)S4(=O)=O)n2)c1 [Compound 275, N4-(2,2-Dimethyl-1,1,3-trioxo-4H-benzo[1,4]thiazin-6-yl)-5-fluoro-N2-[3-(N-methylamino)carbonylmethyleneoxyphenyl]-2,4-pyrimidinediamine]"
6,< 10,COc1ccc(Nc2ncc(F)c(Nc3ccc4c(c3)NC(=O)C(C)(C)S4(=O)=O)n2)cc1Cl [Compound 276]
7,< 10,"CNC(=O)COc1cccc(Nc2ncc(F)c(Nc3ccc4c(c3)NC(=O)C(C)S4)n2)c1 (stereo not shown) [Compound 279, 5-Fluoro-N2-[3-(N-methylamino)carbonylmethyleneoxyphenyl]-N4-(2-methyl-3-oxo-2H,4H-benzo[1,4]thiazin-6-yl)-2,4-pyrimidinediamine]"
8,< 10,"CC1(C)C(=O)Nc2cc(Nc3nc(Nc4cccc(O)c4)ncc3F)ccc2S1(=O)=O [Compound 283, racemic-N4-(2,2-Dimethyl-1,1,3-trioxo-4H-benzo[1,4]thiazin-6-yl)-5-fluoro-N2-[3-hydoxyphenyl]-2,4-pyrimidinediamine]"
9,< 10,COc1ccc(Nc2ncc(F)c(Nc3ccc4c(c3)NC(=O)C(C)(C)S4)n2)cc1Cl [Compound 289]
10,< 10,"CNC(=O)COc1cccc(Nc2ncc(F)c(Nc3ccc4c(c3)NC(=O)C(C)(C)S4)n2)c1 [Compound 294, N4-(2,2-Dimethyl-3-oxo-4H-benzo[1,4]thiazin-6-yl)-5-fluoro-N2-[3-(N-methylamino)carbonylmethyleneoxyphenyl]-2,4-pyrimidinediamine]"
11,< 10,COc1ccc(Nc2ncc(F)c(Nc3ccc4c(c3)NC(=O)C(C)(C)S4)n2)cc1F [Compound 299]
12,< 10,"CNC(=O)COc1cccc(Nc2ncc(F)c(Nc3ccc4c(c3)NC(=O)CS4(=O)=O)n2)c1 [Compound 305, 5-Fluoro-N2-[3-(N-methylamino)carbonylmethyleneoxyphenyl]-N4-(1,1,3-trioxo-2H,4H-benzo[1,4]thiazin-6-yl)-2,4-pyrimidinediamine]"
13,< 10,"COc1cc(Nc2ncc(F)c(Nc3ccc4c(c3)NC(=O)CS4(=O)=O)n2)cc(OC)c1OC [Compound 306, 5-Fluoro-N2-(3,4,5-triimethoxylphenyl)-N4-(1,1,3-trioxo-2H,4H-benzo[1,4]thiazin-6-yl)-2,4-pyrimidinediamine]"
